For one data set, the system named is shTCF4 cells. Description: Whole-cell current-clamp recordings (AP spiking, mAHP/sAHP) in shTCF4 (TCF4 knockdown) mPFC layer 2/3 pyramidal neurons, acute brain slices. The format is cell-based, rat. The note with it: N=8. As to the method: (§1) Pregnant Wistar rats were obtained from Charles River Laboratories, Inc., maintained by SoBran on a 12-hour light cycle and fed ad libitum. In utero electroporation was performed as previously described (Chen et al., 2014; Maher and Loturco, 2012a). Electroporation was performed on embryonic day 16 (E16) and gestation age was confirmed during surgery. All plasmids were used at a final concentration of 1.5 μg/μl, and the mPFC was targeted for transfection. Pregnant dams were returned to the same housing conditions after recovery from surgery, and after litters were born, transfected rats were used for experiments at days P18-24.
(§2) Acute brain slices were obtained from rats and mice as described previously (Maher and Loturco, 2012b). Briefly, P18-24 male and female animals were deeply anesthetized with isoflurane and transcardially perfused with ice-cold oxygenated (95% O2 and 5% CO2) dissecting buffer containing (in mM): 83 NaCl, 2.5 KCl, 1 NaH2PO4, 26.2 NaHCO3, 22 glucose, 72 sucrose, 0.5 CaCl2, and 3.3 MgCl2. Animals were humanly sacrificed and decapitated and the brains were rapidly removed and immersed in ice-cold oxygenated dissection buffer. Coronal slices (300 μm) were cut using a vibratome (Microm HM650V), incubated in dissection buffer for 30-45 minutes at 34° C., and then stored at room temperature. Slices were visualized using IR differential interference microscopy (DIC) (Olympus BX51WI) and a CCD camera (QICAM, QImaging). Individual layer 2/3 pyramidal cells expressing EGFP in rat brain slices were visualized with epifluorescent illumination and a 43× Olympus LUMPlanFLN (0.8 numerical aperture) objective.
(§3) For all experiments, artificial cerebrospinal fluid (ACSF) was oxygenated (95% O2 and 5% CO2) and contained in (in mM): 125 NaCl, 25 NaHCO3, 1.25 NaH2PO4, 3 KCl, 25 dextrose, 1 MgCl2, and 2 CaCl2, pH 7.3. Patch pipettes were fabricated from borosilicate glass (N51A, King Precision Glass, Inc.) to a resistance of 2-5 MΩ. For current- and voltage-clamp measurements, pipettes were filled with (in mM): 125 potassium gluconate, 10 HEPES, 4 Mg-ATP, 0.3 Na-GTP, 0.1 EGTA, 10 phosophocreatine, 0.05% biocytin, adjusted to pH 7.3 with KOH. For all experiments GABAa receptors were blocked with SR-95531 (Gabazine, 5 μM, Ascent Scientific). For AHP current experiments, synaptic currents were blocked with DL-2-amino-5-phosphopentanoic acid (D,L-AP5, 100 μM, Ascent Scientific), 2,3, dioxo-6-nitro-1,2,3,4, tetrahydrobenzo-quinoxaline-7-sulfonamide (NBQX, 10 μM) and SR-95531 (Gabazine, 5 μM, Ascent Scientific). Ca2+-activated currents were blocked with Tetraethylammonium chloride (TEA, 1 mM, Abcam), apamin (100 nM, Abcam), and carbachol (10 μM, Abcam). Current signals were recorded with either a Multiclamp 700A (Molecular Devices) or with an Axopatch 200B amplifier (Molecular Devices) and were filtered at 2 kHz using a built-in Bessel filter and digitized at 10 kHz. Voltage signals were filtered at 2 kHz and digitized at 10 kHz. Data were acquired using Axograph on a Dell PC. Data acquisition was terminated when series resistance was >15 MΩ. For voltage clamp recordings, pyramidal cells were held at −60 mV. No holding current was used for current-clamp recordings.
(§4) Axograph was used on a Macintosh computer for analysis. To measure spike frequency, EGFP-positive layer 2/3 neurons of the mPFC were injected with a 600 ms depolarizing current pulses ranging from 50 to 500 pA at 50 pA increments with an 10 s inter-trial interval. Each current pulse was measured in triplicate, and the number of resulting APs was averaged. For analysis of fAHP amplitude, the second and third current evoked spikes within the 600 ms pulse were measured. The fAHP potential was measured by subtracting the voltage at the peak of the fAHP from the threshold potential for spike initiation (slope of AP exceeds 50 mV/ms). The mAHP potential was measured at the peak of the AHP that followed the 600 ms current pulse. […]

Data set [1] deals with AHP currents in EGFP+ cells expressing shCon or shTCF4. Description: Whole-cell voltage-clamp recordings of AHP currents with progressive pharmacological blockade. Format: cell-based, rat. As to the method: as §3, with “kHz.” for “kHz. Voltage signals were filtered at 2 kHz and digitized at 10 kHz. Data were acquired using Axograph on a Dell PC. Data acquisition was terminated when series resistance was >15 MΩ. For voltage clamp recordings, pyramidal cells were held at −60 mV. No holding current was used for current-clamp recordings.”

The test system of another data set is shCon cells. Description: Whole-cell current-clamp recordings (AP spiking, mAHP/sAHP) in shCon (control shRNA) mPFC layer 2/3 pyramidal neurons, acute brain slices. Format: cell-based, rat. As to the method:
as §1, §2, §3, §4

The test system of a further data set is TCF4 transcript. Description: qRT-PCR of TCF4 transcript after shRNA transfection of rat neuroblastoma cells. The format is cell-based. To be noted: transfected rat neuroblastoma cells; vs control shRNA; N=4. The source says: To measure Tcf4 transcript expression across the lifespan in the rat, three cortical samples per age group, as well as cortical samples extracted from both genotypes of postnatal day 21 (p21) TCF4 mice to measure SCN10a and KCNQ1 expression, were separately flash frozen and homogenized in Trizol (Life Technologies). Aqueous phase was mixed with a 1:1 volume of 70% ethanol prior to purification using RNeasy mini columns treated with DNAse according to manufacturer's protocol (Qiagen). RNA samples were then reverse-transcribed to cDNA using the Quantscript Reverse Transcriptase kit (Qiagen). Amplification of cDNA was performed with iTaq SYBR Green Supermix (Bio-Rad) and TCF4, KCNQ1, and SCN10a primers were designed using with Primer 3 software (http://bioinfo.ut.ee/primer3-0.4.0/). End-point PCR followed by product sequencing, in addition to cDNA dilution series and melt curve analysis were used to verify primer design efficiency and specificity. Real time PCR was performed on the 7900HT Fast Real-Time PCR system (Applied Biosystems) and melt curve analysis was done for absolute quantification of primer efficiency. Data were expressed as fold change of gene of interest normalized to GAPDH expression using 2^delta delta Ct. […]
For orientation: Real-time PCR tracks product formation cycle by cycle.

A further data set deals with TCF4 protein. Description: Western blot of endogenous TCF4 protein after shRNA transfection of rat neuroblastoma cells. Format: cell-based. To be noted: transfected rat neuroblastoma cells; vs control shRNA; N=4. As to the method:
Rat neuroblastoma cells (B104) were cultured in Dulbecco's modified Eagle medium (DMEM) (Thermo Fisher) supplemented with 10% FBS, 100 U-100 μg/ml Penicillin-Streptomycin, 2 mM L-Glutamine, and 100 μm non-essential amino acids and maintained at 37° C. with 5% CO2. At a confluency of […], cells were co-transfected in 6 well plates using Lipofectamine 3000 (Thermo Fisher) with 0.5 μg PBR-GFP, a puromycin selection plasmid, and 2 μg shRNA or 2 μg CRISPR-Cas9 plasmids according to the manufacturer's protocol. Cells were selected with 500 ng/mL puromycin for 24 hours and were allowed to recover in growth medium lacking penicillin-streptomycin for 48 hours.
Rat neuroblastoma cells were washed in cold PBS, scraped from plates and pelleted by centrifugation at 4000 rpm for 5 minutes at 4° C. […]
30 μg of total protein were used from each sample; protein was subjected to gel electrophoresis using a 4-12% gradient Novex Bis-Tris Bolt SDS-PAGE gel. […] Bound antibody was detected using IRdye donkey anti-goat 680 (1:10,000, Li-Cor) and IRdye donkey anti-rabbit 800 (1:10,000, Li-Cor). Antibody detection and quantification were carried out using the LI-COR Odyssey infrared system and software.
In general terms: Immunoblotting shows a protein as a band on a membrane.

In another data set the target is KCNQ1 (Homo sapiens, UniProt P51787). The note with it: KCNQ1 antagonist; Towart et al., 2009; cited from earlier work.

Entries after “also recorded” stand apart in the source; their conditions may differ.

`C[N+](C)(C)CCOC(N)=O` [carbachol]: the “effect on action potential frequency” value in the data set on shTCF4 cells (carbachol (10 μM) bath application, shTCF4 neurons, 600 ms pulses 50 to 500 pA, p=0.0075) is “effective at rescuing action potential frequency”. Also, the “peak amplitude of the mAHP after application” value in the data set with shTCF4 cells (carbachol, shTCF4 cells, before −6.78±0.70, p=0.0051) is given as −4.23±0.60 mV; in the data set on shCon cells (carbachol, before −4.21±0.52, N=19, p=0.0008) it was −2.32±0.31 mV. The “effect on the sAHP (voltage clamp)” value in data set [1] (carbachol, shTCF4 cells, average voltage-clamp traces) was “block the sAHP”. For the same compound, the effect on spiking result with shCon cells (carbachol bath application, effective for current injections 200-500 pA, N=12, p=0.0038) is given as “increased spiking”. Besides, in the data set on shCon cells (carbachol, before −3.13±0.45, N=19, p=0.0004), the “amplitude of the sAHP after application” value is recorded as −1.10±0.32 mV.

In the case of “shTCF4: shRNA construct targeting the open reading frame of rat TCF4, AGAAACTAGACGACGACAA (SEQ ID NO:2) (the letters are possibly those of the target site; listed as Homo sapiens)”, the “TCF4 transcript (qRT-PCR)” value in the data set with TCF4 transcript is recorded as 0.55±0.15 fold change from control. In the data set on TCF4 protein, the “endogenous TCF4 protein (Western blot)” value is 1.9±2.0 % of control.

“shTCF4_2: shRNA construct targeting the 3′ UTR of rat TCF4, GTTTCAGCATTCCCAATTA (SEQ ID NO:1) (the letters are possibly those of the target site)”: in the data set with TCF4 transcript, the “TCF4 transcript (qRT-PCR)” value is recorded as 0.47±0.11 fold change from control. Further, the “endogenous TCF4 protein (Western blot)” value in the data set on TCF4 protein is recorded as 36.4±4.3 % of control.

For `CC(C)(Oc1ccc(Cl)cc1)C(=O)NC1C2CC3CC1CC(NS(C)(=O)=O)(C3)C2` (stereo not drawn) [JNJ303, 2-(4-Chlorophenoxy)-2-methyl-N-[5-[(methylsulfonyl)amino]tricyclo[3.3.1.13,7]dec-2-yl]-propanamide], the IC50 (usually the point on the concentration scale where inhibition reaches its midpoint) at KCNQ1 was 64 nM. For the same compound, in the data set with shTCF4 cells (JNJ303 1 μM, shTCF4 cells, significant for current pulses 250-500 pA, p=0.0084), the “effect on the frequency of APs generated in response to current injections” value is listed as “effective at increasing the spiking frequency; also recorded: significantly increased firing frequency”. For the same compound, the “amplitude of the sAHP after application” value in the data set with shTCF4 cells (JNJ303, shTCF4 cells, before −2.31±0.46 mV, p=0.041) is −1.71±0.33 mV; in the data set with shCon cells (JNJ303, before −4.67±0.48 mV, N=9, p=0.20) it was −4.22±0.57. The “amplitude of the mAHP after application” value in the data set on shTCF4 cells (JNJ303, shTCF4 cells, before −3.52±0.58 mV, p<0.044) was −2.77±0.36 mV; with shCon cells (JNJ303, before −5.93±0.58 mV, N=9, not significant), −5.61±0.74 mV. Also, in the data set on shCon cells (JNJ303, N=8, p=0.11), the “effect on the frequency of APs (spiking)” value is reported as “neither UCL2077 (p=0.35) nor JNJ303 (p=0.11) had an effect on spiking”.

With `CC[N+](CC)(CC)CC.[Cl-]` [TEA, Tetraethylammonium chloride], the “effect on the fAHP current” value in data set [1] (TEA 1 mM bath application, shCon and shTCF4 cells) is “blockade of the fAHP current”.

Source of the values: patent publication US11221329B2, “Treatment of neurological and neurodevelopmental diseases and disorders associated with aberrant ion channel expression and activity” (LIEBER INSTITUTE FOR BRAIN DEVELOPMENT, priority 2015, dated 2022).
